Consider 3 molecules from US5096911A, “Alteration of rate and character of hair growth” (priority 1990, dated 1992).

One test concerns Hamster flank organ hair. Briefly: Inhibition of hair growth: hamster flank organ hair mass after topical application. The class given is in vivo, male intact Golden Syrian hamsters. Particulars: three weeks; for Percent Inhibition (of hair mass vs vehicle-treated organ) / Hamster Flank Organ Hair Mass, Treated (mean): once a day, five days a week. An excerpt:
Acivicin (Sigma Chemical Co., St. Louis) was mixed with separate portions of the foregoing vehicle to provide specimens containing 1,2, and 6% by weight respectively of the inhibitor and the pH was adjusted to pH 7.5 with sodium hydroxide.
Four groups (eight animals in each group) of male intact Golden Syrian hamsters were provided. These animals were considered acceptable models for human beard hair growth in that they display oval shaped flank organs, one on each side, each about 8 mm. in major diameter, which grow thick black and coarse hair similar to human beard hair. These organs produce hair in response to androgens in the hamster. The flank organs of each hamster were depilated by applying a thioglycolate- based chemical depilatory (Surgex), and to one organ of each animal was applied 10-25 mg. of vehicle alone once a day, while to the other organ of each animal was applied an equal amount of vehicle containing inhibitor. After three weeks of such applications (five days a week), the flank organs were shaved and the amount of recovered hair (hair mass) from each was weighed. The extent of reduction in hair growth by the inhibitor was expressed as the percent decrease in hair mass on the organ treated with inhibitor as compared to the organ treated with vehicle alone. As a control, one group of eight animals had both flank organs of each animal treated with vehicle alone.
A composition was prepared containing 5% by weight of bromsulphalein disodium in the vehicle described in Example I above, and applied to hamster flank organs under the same conditions as described in Example 1.
The anthglutin prepared as described above was dissolved in specimens of the vehicle described in Example 1 and applied to the flank organs of groups of hamsters in the same manner as described in Example 1, a group of eight animals being used for each different composition.

The test system of test [1] is hair follicle gamma-glutamyl transpeptidase. Briefly: Inhibition of hair follicle gamma-glutamyl transpeptidase activity. In kind it is biochemical.
In test [2] the test system is gamma-glutamyl transpeptidase. Particulars: Japanese Patent No. 53-127,432; Minato, Archives Biochem. Biophy., Vol. 192, 235-240 (1979); cited from earlier work.
The next test concerns follicle enzyme. Briefly: Inhibition of follicle enzyme activity after topical treatment over three weeks. In kind it is in vivo, Golden Syrian hamsters. The conditions noted are these: 6% solution, three week period.

SMILES strings stand for the structures.

Consider `N[C@@H](CCC(=O)NNc1ccccc1C(=O)O)C(=O)O` [Anthglutin, 1-gamma-L-glutamyl-2 (2-carboxyphenyl)-hydrazine], for which the “Percent Inhibition (of hair mass vs vehicle-treated organ)” value in the test with Hamster flank organ hair (anthglutin 0.5%, topical) came out at 10.7%; in the test with Hamster flank organ hair (anthglutin 1.0%, topical), 16.7%; in the test with Hamster flank organ hair (anthglutin 2.0%, topical), 38.6%; in the test on Hamster flank organ hair (anthglutin 6.0%, topical), 67.2%. Also, the “Hamster Flank Organ Hair Mass, Treated (mean)” value with Hamster flank organ hair (anthglutin 0.5%, topical, contralateral vehicle organ 2.03 mg) came to 1.81 mg; in the test with Hamster flank organ hair (anthglutin 1.0%, topical, contralateral vehicle organ 1.92 mg), 1.60 mg; in the test with Hamster flank organ hair (anthglutin 2.0%, topical, contralateral vehicle organ 2.57 mg), 1.58 mg; in the test on Hamster flank organ hair (anthglutin 6.0%, topical, contralateral vehicle organ 2.26 mg), 0.74 mg. Moreover, the “inhibition of the activity / inhibitory affinity for hair follicle gamma-glutamyl transpeptidase” value in test [1] is on record as “strong inhibitory affinity”. The “inhibition of gamma-glutamyl transpeptidase” value in test [2] is given as “specific inhibitor of gamma-glutamyl transpeptidase”.

For the molecule `N[C@H](C(=O)O)[C@@H]1CC(Cl)=NO1` [Acivicin, (alpha S,5S)-amino-3-chloro-4,5-dihydro-isoxazole acetic acid], the “Percent Inhibition (of hair mass vs vehicle-treated organ)” value with Hamster flank organ hair (acivicin 1.0%, topical) is on record as 18.2%; in the test on Hamster flank organ hair (acivicin 2.0%, topical) it was 57.9%; in the test with Hamster flank organ hair (acivicin 6.0%, topical), 81.0%. The “Hamster Flank Organ Hair Mass, Treated (mean)” value with Hamster flank organ hair (acivicin 1.0%, topical, contralateral vehicle organ 1.04 mg) is 0.85 mg; in the test on Hamster flank organ hair (acivicin 2.0%, topical, contralateral vehicle organ 1.33 mg), 0.56 mg; in the test on Hamster flank organ hair (acivicin 6.0%, topical, contralateral vehicle organ 0.79 mg), 0.15 mg. Besides, the “character of hair on the treated organ vs untreated organ” value in the test on Hamster flank organ hair (topical acivicin) is on record as “more vellus in nature”. Besides, the “inhibition of follicle enzyme activity” value with follicle enzyme was “about 87%”.

In the case of `O=C1OC(c2ccc(O)c(S(=O)(=O)O)c2)(c2ccc(O)c(S(=O)(=O)O)c2)c2c(Br)c(Br)c(Br)c(Br)c21` [bromsulphalein disodium, 5,5'-(4,5,6,7-tetrabromo-3-oxo-1(3H)-isobenzofuranylidene) bis[2-hydroxybenzenesulfonic acid]], the “inhibition of hair mass” value in the test with Hamster flank organ hair (5% by weight bromsulphalein disodium, topical) came out at 32%.
